Drawing on patent US6936585B2, “Corticotropin releasing factor 2 receptor agonists” (priority 2002, dated 2005), this text covers Emax and EC50 for 5 compounds.

The target of one assay is T1, CRF1R (Homo sapiens, UniProt P34998).
T1 sequence (P34998 24-415): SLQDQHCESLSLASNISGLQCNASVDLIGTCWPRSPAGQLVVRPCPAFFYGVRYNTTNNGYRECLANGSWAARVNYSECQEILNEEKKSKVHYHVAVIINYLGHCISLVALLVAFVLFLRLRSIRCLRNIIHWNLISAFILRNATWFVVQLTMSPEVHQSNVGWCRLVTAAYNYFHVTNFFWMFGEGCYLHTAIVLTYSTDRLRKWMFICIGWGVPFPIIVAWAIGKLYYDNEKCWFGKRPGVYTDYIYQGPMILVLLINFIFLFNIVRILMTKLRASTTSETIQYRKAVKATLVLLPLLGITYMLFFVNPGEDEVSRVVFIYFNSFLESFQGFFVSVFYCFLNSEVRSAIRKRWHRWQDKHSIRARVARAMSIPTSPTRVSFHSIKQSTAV
In words: CRF1R agonist activation (EC50 / Emax), called comparative CRF binding. The assay is classed as cell-based. The following applies: for Emax: read-out: CRF1R Emax. The gist of the method: (§1)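 Read-out is Gαs-driven cAMP induction, quantified directly in lysates or through CRE-reporter gene expression, after treating CRF1R- or CRF2R-expressing cells with peptide. Vehicle-treated cells serve as the comparison.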

The target in a further assay is T2, CRF2R (Homo sapiens, UniProt Q13324).
T2 sequence (Q13324 1-411): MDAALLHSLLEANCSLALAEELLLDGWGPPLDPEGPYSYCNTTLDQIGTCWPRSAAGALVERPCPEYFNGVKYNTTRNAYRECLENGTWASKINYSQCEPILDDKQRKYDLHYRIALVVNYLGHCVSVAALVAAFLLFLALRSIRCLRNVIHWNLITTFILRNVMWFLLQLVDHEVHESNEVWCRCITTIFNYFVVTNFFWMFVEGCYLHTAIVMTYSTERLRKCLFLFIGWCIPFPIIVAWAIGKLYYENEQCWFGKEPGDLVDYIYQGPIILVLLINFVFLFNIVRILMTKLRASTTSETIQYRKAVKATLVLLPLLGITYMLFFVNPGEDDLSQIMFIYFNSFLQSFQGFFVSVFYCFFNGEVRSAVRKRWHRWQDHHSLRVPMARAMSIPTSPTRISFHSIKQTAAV
As to the kind of experiment: CRF2R agonist activation (EC50 / Emax), called comparative CRF binding. It is filed as cell-based. The following applies: for Emax: read-out: CRF2R Emax. The method, boiled down: as §1

Peptide text beside a SMILES is read from it.

In the case of `CC[C@H](C)[C@H](N)C(=O)N[C@H](C(=O)N[C@@H](CC(C)C)C(=O)N[C@@H](CO)C(=O)N[C@@H](CC(C)C)C(=O)N[C@@H](CC(=O)O)C(=O)N[C@H](C(=O)N1CCC[C@H]1C(=O)N[C@H](C(=O)NCC(=O)N[C@@H](CC(C)C)C(=O)N[C@@H](CC(C)C)C(=O)N[C@@H](CCC(N)=O)C(=O)N[C@H](C(=O)N[C@@H](CC(C)C)C(=O)N[C@@H](CC(C)C)C(=O)N[C@@H](CCC(=O)O)C(=O)N[C@@H](CCSC)C(=O)N[C@H](C(=O)N[C@@H](CCCCN)C(=O)N[C@@H](C)C(=O)N[C@@H](CC(=O)O)C(=O)N[C@@H](CCC(N)=O)C(=O)N[C@@H](CC(C)C)C(=O)N[C@@H](C)C(=O)N[C@@H](CCC(N)=O)C(=O)N[C@@H](CCC(N)=O)C(=O)N[C@@H](C)C(=O)N[C@@H](Cc1c[nH]cn1)C(=O)N[C@@H](CO)C(=O)N[C@@H](CC(N)=O)C(=O)N[C@@H](CCCNC(=N)N)C(=O)N[C@@H](CCCCN)C(=O)N[C@@H](CC(C)C)C(=O)N[C@@H](CC(C)C)C(=O)N[C@@H](CC(=O)O)C(=O)N[C@H](C(=O)N[C@@H](C)C(N)=O)[C@@H](C)CC)[C@@H](C)O)[C@@H](C)CC)[C@@H](C)CC)C(C)C)C(C)C` [compound 155] (H-IVLSLDVPIGLLQILLEMTKADQLAQQAHSNRKLLDIA-NH2; N-terminus assumed), the Emax (as a rule, the size of the effect at its maximum, as opposed to the concentration needed) turned out to be 16% on CRF1R and 94% on CRF2R.

Regarding `CC[C@H](C)[C@H](N)C(=O)N[C@H](C(=O)N[C@@H](CC(C)C)C(=O)N[C@@H](CO)C(=O)N[C@@H](CC(C)C)C(=O)N[C@@H](CC(=O)O)C(=O)N[C@H](C(=O)N1CCC[C@H]1C(=O)N[C@H](C(=O)NCC(=O)N[C@@H](CC(C)C)C(=O)N[C@@H](CC(C)C)C(=O)N[C@@H](CCC(N)=O)C(=O)N[C@H](C(=O)N[C@@H](CC(C)C)C(=O)N[C@@H](CC(C)C)C(=O)N[C@@H](CCC(=O)O)C(=O)N[C@H](C(=O)N[C@@H](CCC(=O)O)C(=O)N[C@@H](CCCCN)C(=O)N[C@@H](CCC(N)=O)C(=O)N[C@@H](CCC(=O)O)C(=O)N[C@@H](CCCCN)C(=O)N[C@@H](CCC(=O)O)C(=O)N[C@@H](CCCCN)C(=O)N[C@@H](CCC(N)=O)C(=O)N[C@@H](CCC(N)=O)C(=O)N[C@@H](C)C(=O)N[C@@H](C)C(=O)N[C@@H](CC(N)=O)C(=O)N[C@@H](CC(N)=O)C(=O)N[C@@H](CCCNC(=N)N)C(=O)N[C@@H](CC(C)C)C(=O)N[C@@H](CC(C)C)C(=O)N[C@@H](CC(C)C)C(=O)N[C@@H](CC(=O)O)C(=O)N[C@H](C(=O)N[C@H](C(N)=O)[C@@H](C)CC)[C@@H](C)O)[C@@H](C)CC)[C@@H](C)CC)[C@@H](C)CC)C(C)C)C(C)C` [compound 158] (H-IVLSLDVPIGLLQILLEIEKQEKEKQQAANNRLLLDTI-NH2), the Emax stood at 15% on CRF1R and 89% at CRF2R.

Take `CC[C@H](C)[C@H](N)C(=O)N[C@H](C(=O)N[C@@H](CC(C)C)C(=O)N[C@@H](CO)C(=O)N[C@@H](CC(C)C)C(=O)N[C@@H](CC(=O)O)C(=O)N[C@H](C(=O)N1CCC[C@H]1C(=O)N[C@H](C(=O)NCC(=O)N[C@@H](CC(C)C)C(=O)N[C@@H](CC(C)C)C(=O)N[C@@H](CCC(N)=O)C(=O)N[C@H](C(=O)N[C@@H](CC(C)C)C(=O)N[C@@H](CC(C)C)C(=O)N[C@@H](CCC(=O)O)C(=O)N[C@@H](CCC(N)=O)C(=O)N[C@H](C(=O)N[C@@H](CCCCN)C(=O)N[C@@H](C)C(=O)N[C@@H](CC(=O)O)C(=O)N[C@@H](CCC(N)=O)C(=O)N[C@@H](CC(C)C)C(=O)N[C@@H](C)C(=O)N[C@@H](CCC(N)=O)C(=O)N[C@@H](CCC(N)=O)C(=O)N[C@@H](C)C(=O)N[C@@H](Cc1c[nH]cn1)C(=O)N[C@@H](CO)C(=O)N[C@@H](CC(N)=O)C(=O)N[C@@H](CCCNC(=N)N)C(=O)N[C@@H](CCCCN)C(=O)N[C@@H](CC(C)C)C(=O)N[C@@H](CC(C)C)C(=O)N[C@@H](CC(=O)O)C(=O)N[C@H](C(=O)N[C@@H](C)C(N)=O)[C@@H](C)CC)[C@@H](C)O)[C@@H](C)CC)[C@@H](C)CC)C(C)C)C(C)C` [compound 159] (H-IVLSLDVPIGLLQILLEQTKADQLAQQAHSNRKLLDIA-NH2; N-terminus assumed): the Emax on CRF1R was found to be 9%; at CRF2R, 62%.

Consider `CC[C@H](C)[C@H](N)C(=O)N[C@H](C(=O)N[C@@H](CC(C)C)C(=O)N[C@@H](CO)C(=O)N[C@@H](CC(C)C)C(=O)N[C@@H](CC(=O)O)C(=O)N[C@H](C(=O)N1CCC[C@H]1C(=O)N[C@H](C(=O)NCC(=O)N[C@@H](CC(C)C)C(=O)N[C@@H](CC(C)C)C(=O)N[C@@H](CCC(N)=O)C(=O)N[C@H](C(=O)N[C@@H](CC(C)C)C(=O)N[C@@H](CC(C)C)C(=O)N[C@@H](CCC(=O)O)C(=O)N[C@@H](CC(C)C)C(=O)N[C@@H](C)C(=O)N[C@@H](CCCNC(=N)N)C(=O)N[C@H](C(=O)N[C@@H](CCC(N)=O)C(=O)N[C@@H](CO)C(=O)N[C@@H](CCC(N)=O)C(=O)N[C@@H](CCCNC(=N)N)C(=O)N[C@@H](CCC(=O)O)C(=O)N[C@@H](CCCNC(=N)N)C(=O)N[C@@H](C)C(=O)N[C@@H](CCC(=O)O)C(=O)N[C@@H](CCC(N)=O)C(=O)N[C@@H](CC(N)=O)C(=O)N[C@@H](CCCNC(=N)N)C(=O)N[C@H](C(=O)N[C@H](C(=O)N[C@@H](Cc1ccccc1)C(=O)N[C@@H](CC(=O)O)C(=O)N[C@@H](CO)C(=O)N[C@H](C(N)=O)C(C)C)[C@@H](C)CC)[C@@H](C)CC)[C@@H](C)O)[C@@H](C)O)[C@@H](C)CC)C(C)C)C(C)C` [compound 160] (H-IVLSLDVPIGLLQTLLELARTQSQRERAEQNRIIFDSV-NH2; N-terminus assumed), for which the maximal response (Emax) stood at 10% on CRF1R and 87% on CRF2R.

As to `CC[C@H](C)[C@H](N)C(=O)N[C@H](C(=O)N[C@@H](CC(C)C)C(=O)N[C@@H](CO)C(=O)N[C@@H](CC(C)C)C(=O)N[C@@H](CC(=O)O)C(=O)N[C@H](C(=O)N1CCC[C@H]1C(=O)N[C@H](C(=O)NCC(=O)N[C@@H](CC(C)C)C(=O)N[C@@H](CC(C)C)C(=O)N[C@@H](CCC(N)=O)C(=O)N[C@H](C(=O)N[C@@H](CC(C)C)C(=O)N[C@@H](CC(C)C)C(=O)N[C@@H](CCC(=O)O)C(=O)N[C@@H](CCC(N)=O)C(=O)N[C@@H](C)C(=O)N[C@@H](CCCNC(=N)N)C(=O)N[C@@H](C)C(=O)N[C@@H](CCCNC(=N)N)C(=O)N[C@@H](C)C(=O)N[C@@H](C)C(=O)N[C@@H](CCCNC(=N)N)C(=O)N[C@@H](CCC(=O)O)C(=O)N[C@@H](CCC(N)=O)C(=O)N[C@@H](C)C(=O)N[C@H](C(=O)N[C@@H](CO)C(=O)N[C@@H](CC(N)=O)C(=O)N[C@@H](CCCNC(=N)N)C(=O)N[C@@H](CCCCN)C(=O)N[C@@H](CC(C)C)C(=O)N[C@@H](CCSC)C(=O)N[C@@H](CCC(=O)O)C(=O)N[C@H](C(=O)N[C@H](C(N)=O)[C@@H](C)CC)[C@@H](C)CC)[C@@H](C)O)[C@@H](C)CC)[C@@H](C)CC)C(C)C)C(C)C` [compound 163] (H-IVLSLDVPIGLLQILLEQARARAAREQATSNRKLMEII-NH2; N-terminus assumed), the EC50 (in general, the concentration needed to bring the measured effect to its halfway point) at CRF1R (read-out: CRF1R EC50) is > 100 nM; on CRF2R (read-out: CRF2R EC50), 4.49 nM. Besides, the Emax at CRF1R worked out at 13%; at CRF2R it was 96%.
